Activity calls are given as the source filed them. No rule for the calls is given here.

Chain of Cell division control protein 42 homolog (Homo sapiens) (P60953 whole entry, looked up): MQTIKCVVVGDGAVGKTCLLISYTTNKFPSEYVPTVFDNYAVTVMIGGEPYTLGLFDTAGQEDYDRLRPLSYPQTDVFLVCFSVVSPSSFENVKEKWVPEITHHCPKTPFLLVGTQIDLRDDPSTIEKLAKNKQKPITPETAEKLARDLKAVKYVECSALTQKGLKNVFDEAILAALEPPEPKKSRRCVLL

The first experiment has as its target Cell division control protein 42 homolog (Homo sapiens) (UniProt P60953). Nature of the experiment: inhibition of fluorescent GTP binding to Cdc42 wt – biochemical, bead-based multiplex flow cytometry, additional SAR set, SAR follow-up (AID 2022).
Conditions: not given
As to `O=C1C(c2c(O)[nH]c3c(Br)cccc23)=Nc2ccccc21`, the EC50 is > 30 µM (inactive). On the same count and under the same terms, the figure for `O=C1N=c2ccccc2=C1c1[nH]c(=O)[nH]c1O` is > 30 µM (inactive). On to `O=C1N=c2ccccc2=C1c1[nH]c(=S)[nH]c1O`, for which the EC50 is > 30 µM (inactive).

Regarding `O=C1C(c2c(O)[nH]c3ccc(Br)cc23)=Nc2ccccc21`, the EC50 was > 30 µM (inactive).

For the molecule `O=Nc1c(-c2c(O)[nH]c3ccc(Br)cc23)[nH]c2ccccc12`, the EC50 was > 30 µM (inactive). The same measure, in the same setting: the figure for `O=C1C(c2c(O)[nH]c3c(F)cccc23)=Nc2ccccc21` is > 30 µM (inactive); for `O=Nc1c(-c2c(O)[nH]c3c(F)cccc23)[nH]c2ccccc12` it is “inactive”. Same read-out and setting: for `O=Nc1c(-c2c(O)[nH]c3c(Br)cccc23)[nH]c2ccccc12` the value was > 30 µM (inactive); for `O=Nc1c(-c2c(O)[nH]c3ccccc23)[nH]c2ccccc12`, > 30 µM (inactive). Take `O=C1C(c2c(O)[nH]c3ccccc23)=Nc2ccccc21`: the EC50 is > 30 µM (inactive). On the same count and under the same terms, the entry for `O=C1C(c2c(O)[nH]c3c(Cl)cccc23)=Nc2ccccc21` is “inactive”; for `O=Nc1c(-c2c(O)[nH]c3c(Cl)cccc23)[nH]c2ccccc12` it is > 30 µM (inactive).

Still in this experiment, the particulars now being: measured here: Ki for Cdc42 wildtype.
On to `COc1ccc(S(=O)(=O)n2c(N)c(C#N)c(-c3cncc(Br)c3)c2C(=O)c2ccccc2)cc1`, for which the Ki was 4.81 µM. The same measure, in the same setting: the figure for `O=Nc1c(-c2c(O)[nH]c3c(F)cccc23)[nH]c2ccccc12` is 5.93 µM; for `CC(C)Cc1ccc([C@H](C)C(=O)O)cc1` it is 3.51 µM; for `O=C1C(c2c(O)[nH]c3c(Cl)cccc23)=Nc2ccccc21` it is 0.01 µM. Still for that read-out and setting: for `COc1ccc(-c2c(C#N)c(N)n(S(C)(=O)=O)c2C(=O)c2ccccc2)cc1Br` the value was 2.37 µM; for `N#Cc1c(-c2ccc(Cl)cc2)c(C(=O)c2ccccc2)n(S(=O)(=O)c2ccc([N+](=O)[O-])cc2)c1N`, 1.52 µM.

The values are drawn from PubChem BioAssay AID2022 (NMMLSC, 2009).
